target: human serotonin transporter (h-SERT) (Homo sapiens (Human), UniProt P31645); experiment: [3H] citalopram binding assay to evaluate human serotonin reuptake inhibitory action (h-SERT binding assay); details: h-SERT binding inhibition constant Ki, Test Ex. 1
Description: Citalopram Binding Assay to Evaluate Human Serotonin Reuptake Inhibitory Action
In the experiment, human serotonin transporter (h-SERT) was expressed in CHO cells (h-SERT/CHO). The cells were incubated with F12 containing 10% FCS, 500 μg/mL Geneticin and 100 U/mL penicillin-100 μg/mL streptmycin (all manufactured by Sigma Aldrich) in an incubator containing 5% CO2; detached and collected using a SERT buffer [50 mmol/L Tris-HCl comprising 120 mmol/L NaCl and 5 mmol/L KCl (pH=7.4)]; homogenized with a homogenizer manufactured by Teflon (trademark); and then centrifuged (50,000×g, 30 min, 4° C.). The precipitate was suspended again in the appropriate amount of SERT buffer (to give a membrane preparation), and stored at −80° C. until used. The amount of protein in the membrane preparation was assayed by Dye Reagent Concentrate (manufactured by BIO-RAD) using bovine serum albumin (manufactured by Sigma Aldrich) as a standard.
The [^3H] citalopram binding was measured according to the method disclosed in Owens M. J. et al., J. Pharm. […] The glass fiber filter was washed twice with 250 HL of the SERT buffer, placed in a plastic vial containing 4 mL of liquid scintillator (ACS-II, manufactured by Amersham) or Ecoscint A (manufactured by National Diagnostics), and the remaining radioactivity on the filter paper was assayed with a liquid scintillation counter.

Point of comparison: CNCc1cc(OCc2cc(Cl)ccc2F)n(CC2CCCCO2)n1 (single isomer, unassigned; (+)) [Example 475, (+)-1-{5-[(5-chloro-2-fluorobenzyl)oxy]-1-(tetrahydro-2H-pyran-2-ylmethyl)-1H-pyrazol-3-yl}-N-methylmethanamine], Ki 0.0092 µM. Against it:
- CNCc1cc(OCc2cc(Cl)ccc2F)n(CC2CCCCO2)n1 (single isomer, unassigned; (-)) [Example 474, (−)-1-{5-[(5-chloro-2-fluorobenzyl)oxy]-1-(tetrahydro-2H-pyran-2-ylmethyl)-1H-pyrazol-3-yl}-N-methylmethanamine] — within 1.5-fold, 0.011 µM

target: T1, human serotonin 2C receptor (h-5-HT2C) (Homo sapiens (Human), UniProt P28335); experiment: [3H] mesulergine binding assay to evaluate affinity for human 5-HT2C receptor; details: Test Ex. 2, h-5-HT2C/CHO membrane preparation, read-out: 5-HT2C receptor binding inhibition constant Ki
T1 sequence (P28335 whole entry, looked up): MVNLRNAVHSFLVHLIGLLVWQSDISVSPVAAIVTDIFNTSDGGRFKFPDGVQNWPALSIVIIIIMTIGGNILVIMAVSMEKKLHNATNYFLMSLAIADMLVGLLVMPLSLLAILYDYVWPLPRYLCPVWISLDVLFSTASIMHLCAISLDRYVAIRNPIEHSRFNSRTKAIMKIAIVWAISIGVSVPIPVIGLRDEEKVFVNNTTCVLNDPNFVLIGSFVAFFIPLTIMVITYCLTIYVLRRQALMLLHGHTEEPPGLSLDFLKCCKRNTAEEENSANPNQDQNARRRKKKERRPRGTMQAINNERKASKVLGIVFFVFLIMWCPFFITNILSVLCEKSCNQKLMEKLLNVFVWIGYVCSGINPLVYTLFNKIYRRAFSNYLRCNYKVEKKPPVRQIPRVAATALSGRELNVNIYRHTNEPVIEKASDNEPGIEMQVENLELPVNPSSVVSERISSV
Description: Mesulergine Binding Assay to Evaluate Affinity for Human 5-HT2C Receptor
Preparation of the Cells and Membrane Preparations
In the experiment, human serotonin 2C receptor (h-5-HT2C) was expressed in CHO cells (h-5-HT2C/CHO). The cells were incubated with UltraCHO Lipuid (trademark) (manufactured by BioWhitakker) containing 1% FBS, 400 μg/mL Geneticin, 100 U/mL penicillin-100 μg/mL streptomycin (all manufactured by Sigma Aldrich) and 250 μg/mL Zeosin (manufactured by InvivoGen) in an incubator containing 5% CO2; detached and collected using 50 mmol/L Tris-HCl (pH=7.4); homogenized with a homogenizer manufactured by Teflon (trademark); and then centrifuged (48,000×g, 25 min, 4° C.). […]
A solution of 200 μL in total was prepared by mixing 50 μL of [^3H] mesulergine (manufactured by GE Healthcare) diluted with 50 mmol/L Tris-HCl (pH=7.4) (final concentration: about 2 nmol/L), 149 μL of the h-5-HT2C/CHO membrane preparation (protein amount: 20 μg/well), and 1 μL of the test drug dissolved in dimethylsulfoxide. […] The glass fiber filter was washed twice with 250 μL of 50 mmol/L Tris-HCl (pH=7.4), placed in a plastic vial containing 4 mL of liquid scintillator (ACS-II, manufactured by Amersham) or Ecoscint A (manufactured by National Diagnostics), and the remaining radioactivity on the filter paper was assayed with a liquid scintillation counter. […]

Point of comparison: CNCc1cc(OCc2cc(Cl)ccc2F)n(CC2CCCCO2)n1 (single isomer, unassigned; (-)) [Example 474, (−)-1-{5-[(5-chloro-2-fluorobenzyl)oxy]-1-(tetrahydro-2H-pyran-2-ylmethyl)-1H-pyrazol-3-yl}-N-methylmethanamine], Ki 0.016 µM. Against it:
- CNCc1cc(OCc2cc(Cl)ccc2F)n(CC2CCCCO2)n1 (single isomer, unassigned; (+)) [Example 475, (+)-1-{5-[(5-chloro-2-fluorobenzyl)oxy]-1-(tetrahydro-2H-pyran-2-ylmethyl)-1H-pyrazol-3-yl}-N-methylmethanamine] — within 1.5-fold, 0.019 µM

target: T1, human serotonin 2C receptor (h-5-HT2C); experiment: 5-HT2C receptor agonistic action assay (FLIPR Calcium 4, h-5-HT2C/CHO cells; agonistic / inverse agonistic action); format: cell-based; details: not given
Description: 3-1. The Cells and Inoculation Thereof
In the experiment, human serotonin 2C receptor (h-5-HT2C) was expressed in CHO cells (h-5-HT2C/CHO). The cells were incubated with UltraCHO Lipuid (trademark) (manufactured by BioWhitakker) containing 1% FBS, 400 μg/mL Geneticin, 100 U/mL penicillin-100 μg/mL streptomycin (all manufactured by Sigma Aldrich) and 250 μg/mL Zeosin (manufactured by InvivoGen) in an incubator containing 5% CO2. On the day before using the cells, they were detached and collected using 250 μg/mL Trypsin solution (manufactured by Nacalai Tesque), then inoculated in a 96 well flat clear bottom black polystyrene TC-treated microplates (manufactured by Corning) at 40000 cells/well/60 μL in an incubator containing 5% CO2 for 16 hours to 24 hours.
3-2. 5-HT2C Receptor Agonistic Action Assay
The 5-HT2C receptor agonistic action was evaluated with FLIPR Calcium 4 Assay kit (manufactured by Molecular Devices). In specific, to the cells inoculated in the plate were added Component A of FLIPR Calcium 4 Assay kit dissolved in 100 mL of HHBP buffer (1×Hanks buffer, 20 mmol/L HEPES, both manufactured by Gibco) at an amount of 40 μL/well, and the cells were incubated in an incubator containing 5% CO2 for 1 hour. Then, the cells were set in FLIPR TETRA (trademark) (manufactured by Molecular Devices), to the cells was added the test material diluted with HHBP buffer, 2.5 mmol/L Probenecid (manufactured by Sigma) (concentration after dilution: 10 μmol/L) at an amount of 20 μL/well, and the fluorescence was measured. Then, in order to evaluate the antagonistic action of the test material, 20 μL/well of 5-HT solution (manufactured by Sigma, final concentration: 0.1 nmol/L) was further added to the cells, and the fluorescence was measured.
The 5-HT2C receptor agonistic action of each test material was calculated as a rate of fluorescence enhancement wherein 100% was defined as a value when the cells were given 10 μmol/L 5-HT. Furthermore, the 5-HT2C receptor inverse agonistic action was calculated as a rate of fluorescence decay wherein −100% was defined as a value when the cells were given 10 μmol/L SB206553 (manufactured by Sigma Aldrich). A lower value of the 5-HT2C receptor agonistic action of the test material means that the material has a higher antagonistic action. In particular, when the value of the 5-HT2C receptor agonistic action of the test material is below 0%, the material has an inverse agonistic action for 5-HT2C receptor.

Point of comparison: CNCc1cc(OCc2cc(Cl)ccc2F)n(CC2CCCCO2)n1 (single isomer, unassigned; (+)) [Example 475, (+)-1-{5-[(5-chloro-2-fluorobenzyl)oxy]-1-(tetrahydro-2H-pyran-2-ylmethyl)-1H-pyrazol-3-yl}-N-methylmethanamine], “5-HT2C receptor agonistic action” value −95%. Against it:
- CNCc1cc(OCc2ccc(F)cc2F)n(CC2CCCC2)n1 [Example 144, 1-{1-(cyclopentylmethyl)-5-[(2,4-difluorobenzyl)oxy]-1H-pyrazol-3-yl}-N-methylmethanamine] — lower, −127%
- CNCc1cc(OCc2cc(Cl)ccc2F)n(CCC2(O)CCCC2)n1.Cl [Example 435, 1-(2-{5-[(5-Chloro-2-fluorobenzyl)oxy]-3-[(methylamino)-methyl]-1H-pyrazol-1-yl}ethyl)cyclopentanol Hydrochloride] — lower, −125%
- CNCc1cc(OCc2ccccc2)n(C(CF)C2CCCCC2)n1.Cl (stereo not drawn) [Example 330, 1-[5-(Benzyloxy)-1-(1-cyclohexyl-2-fluoroethyl)-1H-pyrazol-3-yl]-N-methylmethanamine Hydrochloride] — higher, −82%
- CNCc1cc(OCc2ccc(F)cc2C)n(CC2CCCCO2)n1 (stereo not drawn) [Compound 108] — lower, −117%
- CNCc1cc(OC(C)c2cccc(Cl)c2)n(CC2CCCCC2)n1.Cl (stereo not drawn) [Example 350, 1-{5-[1-(3-Chlorophenyl)ethoxy]-1-(cyclohexylmethyl)-1H-pyrazol-3-yl}-N-methylmethanamine Hydrochloride] — higher, −92%
- CNCc1cc(OCc2ccccc2)n(CCCc2ccccc2)n1 [Example 3, 1-[5-(Benzyloxy)-1-(3-phenylpropyl)-1H-pyrazol-3-yl]-N-methylmethanamine] — higher, −91%
- CNCc1cc(OCc2ccccc2)n(C(C)C2CCCC2)n1.Cl (stereo not drawn) [Example 288, 1-[5-(Benzyloxy)-1-(1-cyclopentylethyl)-1H-pyrazol-3-yl]-N-methylmethanamine Hydrochloride] — higher, −80%
- CNCc1cc(OCc2cc(Cl)ccc2F)n(CCC(C)(C)F)n1.Cl [Example 482, 1-{5-[(5-Chloro-2-fluorobenzyl)oxy]-1-(3-fluoro-3-methylbutyl)-1H-pyrazol-3-yl}-N-methylmethanamine Hydrochloride] — lower, −116%
- CNCc1cc(OCc2ccccc2)n(C(CO)C2CCCCC2)n1.Cl (stereo not drawn) [Example 328, 2-{5-(Benzyloxy)-3-[(methylamino)methyl]-1H-pyrazol-1-yl}-2-cyclohexyl-ethanol Hydrochloride] — lower, −116%
- Cl.NCc1cc(OCc2cc(F)ccc2F)n(CC2CCCC2)n1 [Example 347, 1-{1-(Cyclopentylmethyl)-5-[(2,5-difluorobenzyl)oxy]-1H-pyrazol-3-yl}methanamine Hydrochloride] — lower, −114%
- CNCc1cc(SCc2ccccc2)n(Cc2ccccc2)n1.Cl [Example 355, 1-[1-Benzyl-5-(benzylsulfanyl)-1H-pyrazol-3-yl]-N-methylmethanamine Hydrochloride] — higher, −72%
- CNCc1cc(OCc2cccc(Cl)c2)n(CC2CCc3ccccc3O2)n1.Cl (stereo not drawn) [Example 341, 1-{5-[(3-Chlorobenzyl)oxy]-1-(3,4-dihydro-2H-chromen-2-yl-methyl)-1H-pyrazol-3-yl}-N-methylmethanamine Hydrochloride] — higher, −71%
- CNCc1cc(OC(F)(F)c2ccccc2)n(CC2CCCCC2)n1.Cl [Example 349, 1-{1-(Cyclohexylmethyl)-5-[difluoro(phenyl)methoxy]-1H-pyrazol-3-yl}-N-methylmethanamine Hydrochloride] — higher, −82%
- CNCc1cc(OCc2ccccc2F)n(Cc2ccc(F)cc2)n1 [Example 218, 1-{1-(4-fluorobenzyl)-5-[(2-fluorobenzyl)oxy]-1H-pyrazol-3-yl}-N-methylmethanamine] — lower, −111%
- CNCc1cc(OCc2ccccc2)n(CC2CCCCC2)n1 [Example 5, 1-[5-(Benzyloxy)-1-(cyclohexylmethyl)-1H-pyrazol-3-yl]-N-methylmethanamine] — higher, −91%
- CNCc1cc(OCc2cc(Cl)ccc2F)n(CC2(OC)CCCCC2)n1 [Compound 434] — higher, −87%
- CNCc1cc(OCc2cc(Cl)ccc2F)n(CCC(C)OC)n1 (stereo not drawn) [Compound 405] — higher, −90%
- CNCc1cc(OCc2cc(F)ccc2F)n(CCC(C)(C)F)n1.Cl [Example 481, 1-{5-[(2,5-Difluorobenzyl)oxy]-1-(3-fluoro-3-methylbutyl)-1H-pyrazol-3-yl}-N-methylmethanamine Hydrochloride] — lower, −109%
- CCNCc1cc(OCc2cc(F)ccc2F)n(CC2CCCCC2)n1 [Example 344, N-({1-(Cyclohexylmethyl)-5-[(2,5-difluorobenzyl)oxy]-1H-pyrazol-3-yl}methyl)ethanamine] — higher, −82%
- CNCc1cc(OCc2cc(F)c(F)cc2F)n(CCC2CC2)n1 [Example 426] — lower, −99%
- CNCc1cc(OCc2cc(Cl)ccc2F)n(CC2CCCCO2)n1 (single isomer, unassigned; (-)) [Example 474, (−)-1-{5-[(5-chloro-2-fluorobenzyl)oxy]-1-(tetrahydro-2H-pyran-2-ylmethyl)-1H-pyrazol-3-yl}-N-methylmethanamine] — lower, −111%
- N-Benzyl-1-(cyclohexylmethyl)-3-[(methyl]-1H-pyrazol-5-amine Dihydrochloride [Example 357] — lower, −120%
- CNCc1cc(OCc2cccc(OC)c2)n(CC2CCCCC2)n1 [Compound 42] — lower, −106%
- CNCc1cc(OCc2cc(Cl)ccc2F)n(CCC(C)(C)OC)n1 [Example 275, 1-{5-[(5-chloro-2-fluorobenzyl)oxy]-1-(3-methoxy-3-methylbutyl)-1H-pyrazol-3-yl}-N-methylmethanamine] — higher, −88%

same assay, conditions: Test Ex. 3; test material 10 μmol/L; 100% = 10 μmol/L 5-HT, −100% = 10 μmol/L SB206553; below 0% = inverse agonistic action

Point of comparison: CNCc1cc(OCc2cc(F)ccc2F)n(CCC(C)(C)C)n1 [Example 266, 1-{5-[(2,5-difluorobenzyl)oxy]-1-(3,3-dimethylbutyl)-1H-pyrazol-3-yl}-N-methylmethanamine], “5-HT2C receptor agonistic action” value −86%. Against it:
- CNC(C)c1cc(OCc2cc(F)ccc2F)n(CCC2CCCC2)n1 (single isomer, unassigned; (-)) [Example 476, (−)-1-{1-(2-cyclopentylethyl)-5-[(2,5-difluorobenzyl)-oxy]-1H-pyrazol-3-yl}-N-methylethanamine] — higher, −72%
- CNC(C)c1cc(OCc2cc(F)ccc2F)n(CCC2CCCC2)n1 (stereo not drawn) [Example 315, 1-{1-(2-cyclopentylethyl)-5-[(2,5-difluorobenzyl)oxy]-1H-pyrazol-3-yl}-N-methylethanamine] — higher, −84%
- CNCc1cc(OCc2cc(Cl)ccc2F)n(CC(C)(C)C)n1 [Example 259, 1-{5-[(5-chloro-2-fluorobenzyl)oxy]-1-(2,2-dimethylpropyl)-1H-pyrazol-3-yl}-N-methylmethanamine] — lower, −119%
- CCC(CC)n1nc(CNC)cc1OCc1ccc(F)cc1Cl [Example 253] — the same, −86%
- CNC(C)c1cc(OCc2cc(F)ccc2F)n(CCC2CCCC2)n1 (single isomer, unassigned; (+)) [Example 477, (+)-1-{1-(2-cyclopentylethyl)-5-[(2,5-difluorobenzyl)-oxy]-1H-pyrazol-3-yl}-N-methylethanamine] — lower, −94%
- CNCc1cc(OCc2cc(Cl)ccc2F)n(CC(C)C)n1 [Example 256, 1-{5-[(5-chloro-2-fluorobenzyl)oxy]-1-(2-methylpropyl)-1H-pyrazol-3-yl}-N-methylmethanamine] — lower, −97%

— patent US11312688B2, “Pyrazole compound” (Sumitomo Dainippon Pharma Co., Ltd., priority 2011, dated 2022)
